Like-named read-outs stand apart in the source and are kept apart here.
Columns and labels:
Human Cot = Human Cot (Homo sapiens (Human), UniProt P41279); test: High Throughput Cot Biochemical Assay
TNFα = test: Cot Monocyte TNFα Cell Based Assay
[1] = IC50 HTRF, Cot HTRF (TR-FRET) biochemical assay
[2] = Homo sapiens, Monocyte, read-out: EC50 TNF, LPS-stimulated human monocytes, TNFα
[3] = IC50 HTRF, Cot HTRF (TR-FRET KinEASE) biochemical assay, 400 μM ATP
[4] = Homo sapiens, Monocyte, read-out: EC50 TNF, LPS-stimulated human monocytes, TNFα TR-FRET

Chain of Human Cot (P41279 30-397): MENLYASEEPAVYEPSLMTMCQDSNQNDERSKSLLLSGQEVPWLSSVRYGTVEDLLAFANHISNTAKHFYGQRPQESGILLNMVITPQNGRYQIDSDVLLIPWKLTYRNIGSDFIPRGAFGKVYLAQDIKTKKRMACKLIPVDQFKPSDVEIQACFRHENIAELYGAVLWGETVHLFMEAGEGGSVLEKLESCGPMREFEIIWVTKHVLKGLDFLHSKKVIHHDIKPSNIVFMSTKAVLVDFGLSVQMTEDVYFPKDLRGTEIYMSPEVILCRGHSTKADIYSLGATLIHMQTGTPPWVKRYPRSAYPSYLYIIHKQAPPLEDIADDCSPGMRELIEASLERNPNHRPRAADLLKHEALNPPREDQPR

## COc1cc(N[C@H](c2cn(C3(C(F)(F)F)CC3)nn2)c2ccc(F)nc2C)cc2c(NCC(C)(C)C)c(C#N)cnc12 [Example 595, (S)-6-(((6-fluoro-2-methylpyridin-3-yl)(1-(1-(trifluoromethyl)cyclopropyl)-1H-1,2,3-triazol-4-yl)methyl)amino)-8-methoxy-4-(neopentylamino)quinoline-3-carbonitrile]
Human Cot; [1]
  IC50: 209 nM
TNFα; [2]
  EC50: 1000 nM

## Cc1nc(F)ccc1[C@H](Nc1cc(Cl)c2ncc(C#N)c(NCC(C)(C)C)c2c1)c1cn(C(C)(C)CF)nn1 [Example 531, (S)-8-chloro-6-(((1-(1-fluoro-2-methyl-propan-2-yl)-1H-1,2,3-triazol-4-yl)(6-fluoro-2-methylpyridin-3-yl)methyl)amino)-4-(neopentylamino)quinoline-3-carbonitrile]
Human Cot; [1]
  IC50: 3 nM
TNFα; [2]
  EC50: 70 nM

## CC(C)(C)N1CCC(n2cc([C@@H](Nc3cc(Cl)c4ncc(C#N)c(Nc5ccc(F)c(F)c5)c4c3)c3cccnc3)nn2)CC1 [Example 285, (S)-6-(((1-(1-(tert-butyl)piperidin-4-yl)-1H-1,2,3-triazol-4-yl)(pyridin-3-yl)methyl)amino)-8-chloro-4-((3,4-difluorophenyl)amino)quinoline-3-carbonitrile]
Human Cot; [1]
  IC50: 8 nM
TNFα; [2]
  EC50: 219 nM

## Cc1nc(F)ccc1[C@H](Nc1cc(Cl)c2ncc(C#N)c(N[C@H]3CCOC3(C)C)c2c1)c1cn(C2(C(F)F)CC2)nn1 [Example 516, 8-chloro-6-(((S)-(1-(1-(difluoromethyl)-cyclopropyl)-1H-1,2,3-triazol-4-yl)(6-fluoro-2-methylpyridin-3-yl)methyl)amino)-4-(((S)-2,2-dimethyltetrahydrofuran-3-yl)amino)quinoline-3-carbonitrile]
Human Cot; [1]
  IC50: 2 nM
TNFα; [2]
  EC50: 34 nM

## CC(C)(C)CNc1c(C#N)cnc2c(Cl)cc(N[C@H](c3cn(C4(C#N)CC4)nn3)c3cccc4ncsc34)cc12 [Example 415, (S)-6-((benzo[d]thiazol-7-yl(1-(1-cyanocyclopropyl)-1H-1,2,3-triazol-4-yl)methyl)amino)-8-chloro-4-(neopentylamino)quinoline-3-carbonitrile]
Human Cot; [1]
  IC50: 3 nM
TNFα; [2]
  EC50: 67 nM

## [2H][C@](Nc1cc(Cl)c2ncc(C#N)c(NCC(C)(C)C)c2c1)(c1cccnc1)c1cn(-c2cccnc2)nn1 [Example 138, (S)-8-chloro-4-(neopentylamino)-6-((pyridin-3-yl(1-(pyridin-3-yl)-1H-1,2,3-triazol-4-yl)methyl-d)amino)quinoline-3-carbonitrile]
Human Cot; [1]
  IC50: 3 nM
TNFα; [2]
  EC50: 141 nM

## CC(C)(C)CNc1c(C#N)cnc2c(C#N)cc(N[C@H](c3cn(C4(C(F)(F)F)CC4)nn3)c3cccc4c(=O)n(CC(F)F)ccc34)cc12 [Example 874, (S)-6-(((2-(2,2-difluoroethyl)-1-oxo-1,2-dihydroisoquinolin-5-yl)(1-(1-(trifluoromethyl)cyclopropyl)-1H-1,2,3-triazol-4-yl)methyl)amino)-4-(neopentylamino)quinoline-3,8-dicarbonitrile]
Human Cot; [3]
  IC50: 3 nM
TNFα; [4]
  EC50: 73 nM

## CCCN1CCC(n2cc([C@@H](Nc3cc(Cl)c4ncc(C#N)c(Nc5ccc(F)c(Cl)c5)c4c3)c3cncs3)nn2)CC1 [Example 373, (R)-8-chloro-4-((3-chloro-4-fluorophenyl)amino)-6-(((1-(1-propylpiperidin-4-yl)-1H-1,2,3-triazol-4-yl)(thiazol-5-yl)methyl)amino)-quinoline-3-carbonitrile]
Human Cot; [1]
  IC50: 3 nM
TNFα; [2]
  EC50: 81 nM

## CC(C)(CNc1c(C#N)cnc2c(Cl)cc(N[C@H](c3cn(C4(C(F)F)CC4)nn3)c3ccc(F)c4ncccc34)cc12)C(F)(F)F [Example 918, (S)-8-chloro-6-(((1-(1-(difluoromethyl)cyclopropyl)-1H-1,2,3-triazol-4-yl)(8-fluoroquinolin-5-yl)methyl)amino)-4-((3,3,3-trifluoro-2,2-dimethylpropyl)amino)quinoline-3-carbonitrile]
Human Cot; [3]
  IC50: 3 nM
TNFα; [4]
  EC50: 42 nM

## CC(C)(C)CNc1c(C#N)cnc2c(C#N)cc(N[C@H](c3cn(C4CC4)nn3)c3csc4c3CCN(C3COC3)C4)cc12 [Example 433, (S)-6-(((1-cyclopropyl-1H-1,2,3-triazol-4-yl)(6-(oxetan-3-yl)-4,5,6,7-tetrahydrothieno[2,3-c]pyridin-3-yl)methyl)amino)-4-(neopentylamino)-quinoline-3,8-dicarbonitrile]
Human Cot; [1]
  IC50: 1 nM
TNFα; [2]
  EC50: 65 nM

## Cc1nc(F)ccc1[C@H](Nc1cc(Cl)c2ncc(C#N)c(NCC(C)(C)C)c2c1)c1nnn(C2CC2)c1C1CC1 [Example 946, (S)-8-chloro-6-(((1,5-dicyclopropyl-1H-1,2,3-triazol-4-yl)(6-fluoro-2-methylpyridin-3-yl)methyl)amino)-4-(neopentylamino)quinoline-3-carbonitrile]
Human Cot; [3]
  IC50: 5 nM
TNFα; [4]
  EC50: 153 nM

## Cc1nc(F)ccc1[C@H](Nc1cc(Cl)c2ncc(C#N)c(NCC(C)(C)C)c2c1)c1cn([C@@H](C)CF)nn1 [Example 546, 8-chloro-6-(((S)-(6-fluoro-2-methylpyridin-3-yl)(1-((S)-1-fluoropropan-2-yl)-1H-1,2,3-triazol-4-yl)methyl)amino)-4-(neopentylamino)quinoline-3-carbonitrile]
Human Cot; [1]
  IC50: 2 nM
TNFα; [2]
  EC50: 42 nM

## CC(C)(C)CNc1c(C#N)cnc2c(C#N)cc(N[C@@H](c3ccc4nccn4c3)c3cn(C4(C(F)(F)F)CC4)nn3)cc12 [Example 822, (S)-6-((imidazo[1,2-a]pyridin-6-yl(1-(1-(trifluoromethyl)cyclopropyl)-1H-1,2,3-triazol-4-yl)methyl)amino)-4-(neopentylamino)quinoline-3,8-dicarbonitrile]
Human Cot; [3]
  IC50: 10 nM
TNFα; [4]
  EC50: 687 nM

## CCN1CCC(n2cc([C@@H](Nc3cc(Cl)c4ncc(C#N)c(Nc5ccc(F)c(Cl)c5)c4c3)c3cscc3Cl)nn2)CC1 [Example 371, (S)-8-chloro-4-((3-chloro-4-fluorophenyl)amino)-6-(((4-chlorothiophen-3-yl)(1-(1-ethylpiperidin-4-yl)-1H-1,2,3-triazol-4-yl)methyl)-amino)quinoline-3-carbonitrile]
Human Cot; [1]
  IC50: 2 nM
TNFα; [2]
  EC50: 173 nM

## Cc1nc(F)ccc1[C@H](Nc1cc(Cl)c2ncc(C#N)c(N[C@@H]3CCOCC3(C)C)c2c1)C1=CN(C2(C3CC3)CC2)NN1 [Example 669]
Human Cot; read-out: IC50 HTRF, Cot HTRF (TR-FRET) biochemical assay
  IC50: 1 nM
TNFα; read-out: EC50 TNF, LPS-stimulated human monocytes, TNFα
  EC50: 7 nM

## CC(C)(CNc1c(C#N)cnc2c(Cl)cc(N[C@H](c3cn(C4(C5CC5)CC4)nn3)c3cccc4ncccc34)cc12)C(F)(F)F [Example 798, (S)-6-(((1-([1,1′-bi(cyclopropan)]-1-yl)-1H-1,2,3-triazol-4-yl)(quinolin-5-yl)methyl)amino)-8-chloro-4-((3,3,3-trifluoro-2,2-dimethylpropyl)amino)quinoline-3-carbonitrile]
Human Cot; [1]
  IC50: 7 nM
TNFα; [2]
  EC50: 90 nM

## Cn1cnc2cccc([C@H](Nc3cc(Cl)c4ncc(C#N)c(NCC(C)(C)C)c4c3)c3cn(C4(C(F)(F)F)CC4)nn3)c21 [Example 483, (S)-8-chloro-6-(((1-methyl-1H-benzo[d]imidazol-7-yl)(1-(1-(trifluoromethyl)cyclopropyl)-1H-1,2,3-triazol-4-yl)methyl)amino)-4-(neopentylamino)quinoline-3-carbonitrile]
Human Cot; [1]
  IC50: 7 nM
TNFα; [2]
  EC50: 108 nM

## [2H][C@](Nc1cc(Cl)c2ncc(C#N)c(Nc3cccc(Cl)c3OC)c2c1)(c1ccc(F)nc1)c1cn(C2CC2)nn1 [Example 94, (S)-8-chloro-4-((3-chloro-2-methoxyphenyl)amino)-6-(((1-cyclopropyl-1H-1,2,3-triazol-4-yl)(6-fluoropyridin-3-yl)methyl-d)amino)quinoline-3-carbonitrile]
Human Cot; [1]
  IC50: 2 nM
TNFα; [2]
  EC50: 130 nM

## COc1ccc([C@H](Nc2cc(Cl)c3ncc(C#N)c(NCC(C)(C)C)c3c2)c2cn(C3(C(F)(F)F)CC3)nn2)cn1 [Example 805, (S)-8-chloro-6-(((6-methoxypyridin-3-yl)(1-(1-(trifluoromethyl)cyclopropyl)-1H-1,2,3-triazol-4-yl)methyl)amino)-4-(neopentylamino)quinoline-3-carbonitrile]
Human Cot; [3]
  IC50: 28 nM
TNFα; [4]
  EC50: 778 nM

## Cc1nc(F)ccc1[C@H](Nc1cc(C#N)c2ncc(C#N)c(NCC(C)(C)C)c2c1)c1cn(C(C)(C)C(F)F)nn1 [Example 590, (S)-6-(((1-(1,1-difluoro-2-methylpropan-2-yl)-1H-1,2,3-triazol-4-yl)(6-fluoro-2-methylpyridin-3-yl)methyl)amino)-4-(neopentylamino)-quinoline-3,8-dicarbonitrile]
Human Cot; [1]
  IC50: 3 nM
TNFα; [2]
  EC50: 57 nM

## CC(C)(CNc1c(C#N)cnc2c(Cl)cc(N[C@H](c3cn(C45CC(C4)C5)nn3)c3cccc4ncccc34)cc12)C(F)(F)F [Example 799, (S)-6-(((1-(bicyclo[1.1.1]pentan-1-yl)-1H-1,2,3-triazol-4-yl)(quinolin-5-yl)methyl)amino)-8-chloro-4-((3,3,3-trifluoro-2,2-dimethylpropyl)amino)quinoline-3-carbonitrile]
Human Cot; [1]
  IC50: 4 nM
TNFα; [2]
  EC50: 46 nM

## Cc1nc(F)ccc1[C@H](Nc1cc(Cl)c2ncc(C#N)c(NCC(C)(C)C)c2c1)c1cn(C(C)(C)C(F)F)nn1 [Example 545, (S)-8-chloro-6-(((1-(1,1-difluoro-2-methylpropan-2-yl)-1H-1,2,3-triazol-4-yl)(6-fluoro-2-methylpyridin-3-yl)methyl)-amino)-4-(neopentylamino)quinoline-3-carbonitrile]
Human Cot; [1]
  IC50: 4 nM
TNFα; [2]
  EC50: 108 nM

## CCC(F)(F)Cn1cc([C@@H](Nc2cc(C#N)c3ncc(C#N)c(NCC(C)(C)C)c3c2)c2ccc(F)nc2C)nn1 [Example 837, (S)-6-(((1-(2,2-difluorobutyl)-1H-1,2,3-triazol-4-yl)(6-fluoro-2-methylpyridin-3-yl)methyl)amino)-4-(neopentylamino)quinoline-3,8-dicarbonitrile]
Human Cot; [3]
  IC50: 7 nM
TNFα; [4]
  EC50: 121 nM
